Results reported in patent US11559585B2, “Conjugates of active pharmaceutical ingredients” (priority 2017, dated 2023).

Legend:
[1] = Systemic toxicity of pPhD NPs (body weight, H&E); assay type: in vivo
Protocol: Tumor volume and body weight measurements. The body weights and tumor sizes were monitored three times a week, and the tumor volume was calculated by the following formula: Tumor volume=Length×(Width/2)^2.
H&E evaluation. All laser-treated tumors were collected and stained with hematoxylin and eosin (H&E) to evaluate the effect of phototherapy. The main organs of each group, including heart, liver, spleen, lung, kidney, small intestine, were collected for H&E assay to evaluate the toxicity of the materials.

[2] = tested on: OSC-3 cells; experiment: Cell viability with or without laser
Protocol: The synergistic effect of the chemotherapy and phototherapy of pPhD NPs was evaluated. OSC-3 cells were incubated with different concentrations of free photosensitizer (Phy), free chemotherapeutic drug (DOX) and pPhD NPs, respectively, then treated with or without laser (FIG. 11i).

[3] = tested on: U87-MG tumour cells; experiment: Cell viability (MTS) with or without laser; assay type: cell-based
Protocol: Cell viabilities evaluation. U87-MG cells were purchased from the American Type Culture Collection (ATCC, Manassas, Va., USA). Cells were cultured in RPMI 1640 Medium supplemented with 10% fetal bovine serum, 100 U/mL penicillin G, and […] streptomycin in a humidified 37° C. with 5% CO2. Cell viabilities were determined by MTS method. U87-MG cells were seeded in 96-well plates with a density of 5000 cells per well. The cells were incubated overnight until fully attached. The cells were treated with different concentrations of Pa, Ir, Pa and Ir mixture and PIN. 12 h later, the extracellular materials were washed off with PBS and replaced with fresh culture media. Laser treated group were exposed under a laser source of Omnilux New-U device (630 nm) for 3 min, and further incubated with non-laser treated cells for another 24 h. MTS was added to each well and further incubated for 2 h. The UV-vis absorbance at 495 nm with a reference wavelength of 630 nm was detected using a micro-plate reader using an SpectraMax M3 Multi-Mode Microplate Readers (Molecular Devices, LLC., CA, USA). Untreated cells in medium were used as controls. […]. Results were shown as the average cell viability [(ODtreat−ODblank)/(ODcontrol−ODblank)*100%] of triplicate wells.

[4] = tested on: A549 cells; experiment: Cytotoxicity assay (MTS) with or without light; assay type: cell-based, human; conditions: upon light treatment (630 nm, 3 min)
Protocol: Cytotoxicity assay. Cell viabilities were determined by MTS method according to manufactory manual (Promega, Madison, Wis.). A549 cells were seeded in 96-wells plates with a density of 5000 cells per well. […] Six hours later, medium was replaced with fresh complete media followed by illumination with 630 nm light for 3 minutes. After additional 24 hours incubation, MTS working solution was added and the absorbance at 490 nm was evaluated by SpectraMax M3 microplate reader. Experiments were performed in triplicate, and 3 independent experiments were conducted.

[5] = tested on: A549 human lung cancer cells; experiment: Cell uptake and intracellular ROS production; assay type: cell-based; conditions: upon laser/light illumination
Protocol: Cell uptake and intracellular ROS production. […] After three times of washes with PBS, cells were incubated with 50 μM DCF-DA for 30 minutes. Samples were treated with or without light (630 nm, Omnilux New-U LED panel) for 1 minute, and intracellular […] (based on Pa fluorescence) and ROS production were analyzed by flow cytometry ([…], BD Bioscience, SD, CA).

Which “body weight changes / systemic toxicity” value ([1]; during treatment) does the source give for `COc1cccc2c1C(=O)c1c(O)c3c(c(O)c1C2=O)C[C@@](O)(C(=O)CO)C[C@@H]3O[C@H]1C[C@H](N)[C@H](O)[C@H](C)O1` [DOX, doxorubicin] here?
The value was “obvious body weights loss”.

And the “lesion of major organs (H&E)” value ([1]; mouse, in vivo)?
The value was “obvious liver and heart toxicity”.

And the cytotoxicity [2]?
Its cytotoxicity is “notable anti-tumor efficacy”.

Which cytotoxicity [2] does the source give for pheophorbide a-hydrazide [Phy] here?
Its cytotoxicity is “no obvious cytotoxicity”.

Which results are given for pheophorbide A [Pa]?
IC50 ([3]; with laser treatment (630 nm, 3 min)): ~50 µM; cytotoxicity ([3]; without laser): no obvious cytotoxicity; IC50 [4]: 7 µM

Which “intracellular ROS production” value [5] does the source give for `CCc1c2c(nc3ccc(OC(=O)N4CCC(N5CCCCC5)CC4)cc13)-c1cc3c(c(=O)n1C2)COC(=O)[C@]3(O)CC` [Ir, irinotecan] here?
Its value is “did not produce intracellular ROS”.
